Measurements reported in PMC7300003, “Alternative catalytic residues in the active site of Esco acetyltransferases” (Scientific Reports, 2020).

Tests used:
HsESCO1 = target: T1, HsESCO1 (Homo sapiens, UniProt Q5FWF5); assay: SMC3 acetylation time course, anti-acetyl-Smc3 immunoblot; assay type: biochemical; conditions: 10 µM AcCoA; acceptor human trimeric or tetrameric cohesin (SMC3 K105/K106); ATP, plasmid DNA, 1 mM MgCl2, pH 7.5, 37 °C
T1 construct: gene ESCO1; full-length, N-terminal His-tag, Sf9 insect cells
T1 sequence (Q5FWF5 1-840): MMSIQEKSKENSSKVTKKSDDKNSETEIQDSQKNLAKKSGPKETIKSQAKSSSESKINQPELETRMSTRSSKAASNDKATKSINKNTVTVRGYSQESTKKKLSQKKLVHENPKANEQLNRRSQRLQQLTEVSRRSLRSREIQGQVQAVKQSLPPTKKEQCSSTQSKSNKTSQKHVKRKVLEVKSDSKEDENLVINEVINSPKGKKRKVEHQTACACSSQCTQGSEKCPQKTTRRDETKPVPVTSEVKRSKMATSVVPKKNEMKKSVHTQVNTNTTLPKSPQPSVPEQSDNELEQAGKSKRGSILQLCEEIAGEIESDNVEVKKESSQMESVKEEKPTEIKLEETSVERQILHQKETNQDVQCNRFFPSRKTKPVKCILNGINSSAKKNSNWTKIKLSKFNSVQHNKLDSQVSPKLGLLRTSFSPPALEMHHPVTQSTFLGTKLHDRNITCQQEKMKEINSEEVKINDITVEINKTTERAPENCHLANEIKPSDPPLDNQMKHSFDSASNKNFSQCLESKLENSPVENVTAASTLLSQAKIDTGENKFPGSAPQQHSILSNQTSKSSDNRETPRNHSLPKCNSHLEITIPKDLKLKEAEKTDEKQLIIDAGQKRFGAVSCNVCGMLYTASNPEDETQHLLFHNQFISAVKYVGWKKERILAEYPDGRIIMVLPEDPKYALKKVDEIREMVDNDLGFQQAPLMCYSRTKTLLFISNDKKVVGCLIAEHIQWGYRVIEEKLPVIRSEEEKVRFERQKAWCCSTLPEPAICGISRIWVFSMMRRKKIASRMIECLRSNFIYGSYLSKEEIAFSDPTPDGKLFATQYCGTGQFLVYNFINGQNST

MmEsco2^368–592 = target: T2, MmEsco2^368–592 (Mus musculus, UniProt Q8CIB9); assay: X-ray crystallography, […] Å (zinc SAD); assay type: binding; conditions: natively bound (co-purified) CoA; active-site groove; pH 8 crystallisation
T2 construct: gene Esco2; residues 368-592 (C2H2 zinc finger and acetyltransferase domain), C-terminal His-tag, Hi5 insect cells
T2 sequence (Q8CIB9 368-592): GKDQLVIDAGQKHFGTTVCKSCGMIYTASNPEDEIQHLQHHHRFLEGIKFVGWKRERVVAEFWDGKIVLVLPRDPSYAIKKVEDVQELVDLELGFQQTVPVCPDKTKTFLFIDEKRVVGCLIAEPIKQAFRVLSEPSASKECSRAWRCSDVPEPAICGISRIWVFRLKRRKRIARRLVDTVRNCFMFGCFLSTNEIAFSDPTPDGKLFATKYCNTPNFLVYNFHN

Question: With `CC(=O)SCCNC(=O)CCNC(=O)[C@H](O)C(C)(C)COP(=O)(O)OP(=O)(O)OC[C@H]1O[C@@H](n2cnc3c(N)ncnc32)[C@H](O)[C@@H]1OP(=O)(O)O` [AcCoA] as the compound, how does the “SMC3 acetylation time course, anti-acetyl-Smc3 immunoblot” value (HsESCO1) read?
Answer: The purified tetrameric cohesin complex was incubated with HsESCO1 and AcCoA

Question: How did the “X-ray crystallography, 1.8 Å (zinc SAD)” value (MmEsco2^368–592) turn out when `CC(C)(COP(=O)(O)OP(=O)(O)OC[C@H]1O[C@@H](n2cnc3c(N)ncnc32)[C@H](O)[C@@H]1OP(=O)(O)O)[C@@H](O)C(=O)NCCC(=O)NCCS` [CoA] was run?
Answer: The CoA cofactor is natively present in a complex with MmEsco2 in a groove
